In publication PMC4287973, “Tumor cell-specific inhibition of MYC function using small molecule inhibitors of the HUWE1 ubiquitin ligase” (EMBO Molecular Medicine, 2014):
pIC50: −log10 of the molar value.

Target: T1, HUWE1 (Homo sapiens, UniProt Q7Z6Z7)
T1 construct: expressed in transfected cells; host or cells: HeLa
Test: In vivo (cellular) ubiquitination of MCL1 by ectopic HA-HUWE1 in HeLa cells
Type: cell-based
Conditions: HeLa cells transfected with MCL1, His-ubiquitin, inhibitor 16 hrs, read-out: IC50 relative MCL1 ubiquitination
Excerpt: HeLa cells were transfected with plasmids expressing MCL1, His-ubiquitin, and HA-HUWE1. […] After lysis, ubiquitin-modified proteins were recovered by Ni-NTA-Agarose and immunoblots of the eluates were probed with an antibody against MCL1. […] At the same time, cells were irradiated with 500 J/m^2 UVB and harvested after indicated time points. Immunoblots of the lysates were probed with antibodies recognizing either MCL1 or CDK2 as control. Quantification of the MCL1 protein levels for the according experiment is shown directly below the immunoblots. Diagrams below the immunoblots show mean protein levels ± SD (n = 5). From the data, the half-life of the MCL1 protein was determined with P-values calculated using a Student's t-test. • Effects of HUWE1 inhibition on levels of TopBP1. […] Cell lysates were fractionated in chromatin-bound and soluble non-chromatin-bound fractions. Immunoblots of the soluble fraction were incubated with indicated antibodies.
To test the efficacy of both compounds in tissue culture, we initially confirmed observations that HUWE1 ubiquitinates and degrades MCL1 in response to DNA damage (Zhong et al, [2005]). Consistent with these published data, steady-state levels of MCL1 decreased rapidly upon UV irradiation of U2OS cells and depletion of HUWE1 both enhanced steady-state levels of MCL1 and retarded the decrease upon UV irradiation (Supplementary Fig S4A). […]

T1 sequence (Q7Z6Z7 whole entry): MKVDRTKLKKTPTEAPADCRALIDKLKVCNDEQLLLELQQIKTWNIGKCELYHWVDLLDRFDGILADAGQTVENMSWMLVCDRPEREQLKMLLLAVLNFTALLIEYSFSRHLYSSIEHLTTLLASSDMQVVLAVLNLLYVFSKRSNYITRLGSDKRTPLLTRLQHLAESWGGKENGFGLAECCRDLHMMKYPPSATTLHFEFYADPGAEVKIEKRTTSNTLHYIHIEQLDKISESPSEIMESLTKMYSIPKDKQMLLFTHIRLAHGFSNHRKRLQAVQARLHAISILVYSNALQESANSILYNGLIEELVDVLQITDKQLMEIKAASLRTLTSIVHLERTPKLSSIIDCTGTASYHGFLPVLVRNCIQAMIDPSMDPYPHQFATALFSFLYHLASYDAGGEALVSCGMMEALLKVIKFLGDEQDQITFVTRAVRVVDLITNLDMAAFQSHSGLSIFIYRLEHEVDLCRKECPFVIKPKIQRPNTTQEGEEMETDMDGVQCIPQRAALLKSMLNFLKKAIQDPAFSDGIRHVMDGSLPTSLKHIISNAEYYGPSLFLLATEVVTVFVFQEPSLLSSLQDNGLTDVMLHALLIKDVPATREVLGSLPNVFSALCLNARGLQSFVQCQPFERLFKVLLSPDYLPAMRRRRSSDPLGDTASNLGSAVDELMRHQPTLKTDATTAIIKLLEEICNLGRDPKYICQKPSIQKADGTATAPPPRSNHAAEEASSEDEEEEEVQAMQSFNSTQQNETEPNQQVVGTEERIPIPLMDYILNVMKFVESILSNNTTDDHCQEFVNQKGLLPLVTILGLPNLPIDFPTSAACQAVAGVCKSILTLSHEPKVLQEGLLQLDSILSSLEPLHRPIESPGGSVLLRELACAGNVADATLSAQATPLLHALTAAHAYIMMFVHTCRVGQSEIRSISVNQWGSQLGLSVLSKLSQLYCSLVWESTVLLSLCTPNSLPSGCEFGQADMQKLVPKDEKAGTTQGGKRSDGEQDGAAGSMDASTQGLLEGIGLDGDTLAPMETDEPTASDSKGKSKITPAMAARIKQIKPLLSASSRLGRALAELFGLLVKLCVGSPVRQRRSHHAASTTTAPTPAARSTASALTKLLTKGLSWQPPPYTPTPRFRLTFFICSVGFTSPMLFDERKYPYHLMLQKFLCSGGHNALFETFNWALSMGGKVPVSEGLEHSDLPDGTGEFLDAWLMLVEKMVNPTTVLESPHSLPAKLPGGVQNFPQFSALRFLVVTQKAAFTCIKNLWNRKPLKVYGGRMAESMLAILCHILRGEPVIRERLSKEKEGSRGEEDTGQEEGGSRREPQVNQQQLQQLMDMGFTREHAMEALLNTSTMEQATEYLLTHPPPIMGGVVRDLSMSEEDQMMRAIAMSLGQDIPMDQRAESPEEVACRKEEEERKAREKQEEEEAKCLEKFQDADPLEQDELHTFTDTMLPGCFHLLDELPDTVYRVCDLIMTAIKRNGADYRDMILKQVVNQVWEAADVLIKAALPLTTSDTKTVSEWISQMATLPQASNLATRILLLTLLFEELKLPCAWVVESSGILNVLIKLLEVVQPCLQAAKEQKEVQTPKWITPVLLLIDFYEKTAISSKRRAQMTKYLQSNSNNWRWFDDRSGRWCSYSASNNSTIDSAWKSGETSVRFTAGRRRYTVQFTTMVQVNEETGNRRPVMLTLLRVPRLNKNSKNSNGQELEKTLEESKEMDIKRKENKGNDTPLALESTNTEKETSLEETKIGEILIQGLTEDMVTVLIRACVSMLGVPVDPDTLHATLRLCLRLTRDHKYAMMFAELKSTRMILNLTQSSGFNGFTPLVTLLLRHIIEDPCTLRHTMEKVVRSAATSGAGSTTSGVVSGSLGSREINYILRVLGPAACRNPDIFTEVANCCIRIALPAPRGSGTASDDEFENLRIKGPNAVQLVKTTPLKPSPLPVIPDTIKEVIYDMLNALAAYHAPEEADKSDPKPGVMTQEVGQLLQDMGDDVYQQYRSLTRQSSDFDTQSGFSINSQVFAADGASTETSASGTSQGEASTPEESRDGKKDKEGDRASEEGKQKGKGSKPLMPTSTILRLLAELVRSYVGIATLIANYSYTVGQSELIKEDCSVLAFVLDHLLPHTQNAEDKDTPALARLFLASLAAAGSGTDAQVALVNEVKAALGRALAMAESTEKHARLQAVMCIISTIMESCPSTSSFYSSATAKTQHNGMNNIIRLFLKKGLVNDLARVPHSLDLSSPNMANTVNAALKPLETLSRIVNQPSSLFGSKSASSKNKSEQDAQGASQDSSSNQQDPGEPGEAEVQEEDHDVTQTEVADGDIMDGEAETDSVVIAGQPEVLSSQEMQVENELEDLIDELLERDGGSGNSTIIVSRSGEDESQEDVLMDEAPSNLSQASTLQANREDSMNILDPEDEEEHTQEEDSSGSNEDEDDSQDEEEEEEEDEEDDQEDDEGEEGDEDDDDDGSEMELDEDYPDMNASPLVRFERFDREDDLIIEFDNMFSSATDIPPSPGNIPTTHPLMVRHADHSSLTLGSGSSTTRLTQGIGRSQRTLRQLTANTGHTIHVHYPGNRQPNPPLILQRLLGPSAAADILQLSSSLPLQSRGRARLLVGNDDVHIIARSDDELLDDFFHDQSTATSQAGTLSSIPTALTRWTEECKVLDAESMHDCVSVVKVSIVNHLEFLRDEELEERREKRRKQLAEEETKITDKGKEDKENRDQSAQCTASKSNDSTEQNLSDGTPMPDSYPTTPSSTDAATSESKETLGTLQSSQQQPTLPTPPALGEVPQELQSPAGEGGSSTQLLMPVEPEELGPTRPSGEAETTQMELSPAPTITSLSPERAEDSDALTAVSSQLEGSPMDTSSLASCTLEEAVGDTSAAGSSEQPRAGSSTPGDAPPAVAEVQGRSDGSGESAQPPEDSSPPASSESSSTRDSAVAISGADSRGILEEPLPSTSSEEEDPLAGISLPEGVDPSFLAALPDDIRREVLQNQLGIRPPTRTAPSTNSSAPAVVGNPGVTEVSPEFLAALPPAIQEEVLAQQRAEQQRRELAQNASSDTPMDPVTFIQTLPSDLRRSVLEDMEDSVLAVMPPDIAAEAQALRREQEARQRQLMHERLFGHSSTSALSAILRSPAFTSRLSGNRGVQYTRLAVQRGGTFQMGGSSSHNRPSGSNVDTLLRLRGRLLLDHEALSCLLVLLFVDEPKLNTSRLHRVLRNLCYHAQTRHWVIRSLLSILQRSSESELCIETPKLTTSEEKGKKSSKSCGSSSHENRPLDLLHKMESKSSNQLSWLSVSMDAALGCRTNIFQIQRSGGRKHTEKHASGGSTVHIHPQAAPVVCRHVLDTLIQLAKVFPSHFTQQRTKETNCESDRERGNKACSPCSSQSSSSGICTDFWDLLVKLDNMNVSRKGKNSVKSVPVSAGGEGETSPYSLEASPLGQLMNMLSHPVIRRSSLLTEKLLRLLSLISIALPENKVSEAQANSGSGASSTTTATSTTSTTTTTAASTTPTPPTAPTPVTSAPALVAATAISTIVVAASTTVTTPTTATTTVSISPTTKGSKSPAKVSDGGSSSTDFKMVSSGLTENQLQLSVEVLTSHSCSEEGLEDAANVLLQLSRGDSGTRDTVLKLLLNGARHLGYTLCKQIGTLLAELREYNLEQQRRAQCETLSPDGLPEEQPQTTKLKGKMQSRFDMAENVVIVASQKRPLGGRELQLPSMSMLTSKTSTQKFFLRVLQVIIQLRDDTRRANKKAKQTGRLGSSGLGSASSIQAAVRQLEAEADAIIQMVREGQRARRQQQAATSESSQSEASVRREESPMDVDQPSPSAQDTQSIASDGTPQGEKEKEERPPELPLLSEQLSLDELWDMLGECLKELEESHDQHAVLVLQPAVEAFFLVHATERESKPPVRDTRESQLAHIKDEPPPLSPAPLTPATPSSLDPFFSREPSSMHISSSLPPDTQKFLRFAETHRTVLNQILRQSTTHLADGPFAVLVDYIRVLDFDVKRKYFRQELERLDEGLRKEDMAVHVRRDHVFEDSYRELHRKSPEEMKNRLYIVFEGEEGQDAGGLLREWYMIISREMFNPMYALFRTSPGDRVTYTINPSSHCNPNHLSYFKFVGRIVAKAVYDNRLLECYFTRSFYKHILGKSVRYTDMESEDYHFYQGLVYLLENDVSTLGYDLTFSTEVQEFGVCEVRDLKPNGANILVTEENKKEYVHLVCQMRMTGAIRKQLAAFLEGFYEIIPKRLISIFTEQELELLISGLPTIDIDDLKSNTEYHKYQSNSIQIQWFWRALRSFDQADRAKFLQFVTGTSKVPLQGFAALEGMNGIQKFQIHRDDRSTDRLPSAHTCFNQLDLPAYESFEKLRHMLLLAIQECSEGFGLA

Compound: Cc1c(C(=O)Nc2ccc(CN)cc2)ncnc1N1CCC(C#N)(c2ccccc2)CC1 [BI8622]
- pIC50: 5.17
